Consider 28 compounds from patent US20230203003A1, “Notch Inhibitors and Uses Thereof” (StemSynergy Therapeutics, Inc., priority 2020, published 2023).

Where a name gives a salt, the structure may show the parent alone.

Usually IC50 stands for the concentration that inhibits the measured activity by half.

The target of one experiment is T1, hNotch1ICD (Homo sapiens, UniProt P46531).
T1 construct: pLV[Tet]-Puro-TRE3G>Notch1-ICD; expressed in transfected cells; host or cells: 293A cells
T1 sequence (P46531 1754-2555 limits assumed): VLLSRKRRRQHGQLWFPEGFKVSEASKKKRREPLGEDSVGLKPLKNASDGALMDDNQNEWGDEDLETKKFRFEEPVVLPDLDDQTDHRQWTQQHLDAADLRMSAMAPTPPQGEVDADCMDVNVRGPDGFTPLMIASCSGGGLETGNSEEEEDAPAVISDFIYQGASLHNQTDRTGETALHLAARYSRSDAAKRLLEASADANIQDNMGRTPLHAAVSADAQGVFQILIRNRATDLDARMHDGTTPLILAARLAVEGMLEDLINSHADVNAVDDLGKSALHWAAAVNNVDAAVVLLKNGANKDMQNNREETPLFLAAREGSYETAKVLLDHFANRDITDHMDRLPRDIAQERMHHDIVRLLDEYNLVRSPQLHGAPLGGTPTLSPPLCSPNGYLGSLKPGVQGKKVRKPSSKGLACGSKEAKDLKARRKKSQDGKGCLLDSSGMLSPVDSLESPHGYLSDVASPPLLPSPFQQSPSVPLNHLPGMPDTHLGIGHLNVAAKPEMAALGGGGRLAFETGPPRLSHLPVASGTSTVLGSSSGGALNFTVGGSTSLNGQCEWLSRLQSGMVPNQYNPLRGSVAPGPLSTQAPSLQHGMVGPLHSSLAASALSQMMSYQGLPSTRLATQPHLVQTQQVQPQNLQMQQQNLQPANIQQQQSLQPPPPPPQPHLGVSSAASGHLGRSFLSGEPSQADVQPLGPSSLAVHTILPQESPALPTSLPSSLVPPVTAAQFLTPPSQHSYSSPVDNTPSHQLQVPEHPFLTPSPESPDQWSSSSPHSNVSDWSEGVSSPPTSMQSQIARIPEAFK
As to the kind of experiment: Notch1 Reporter Assay (Dox-inducible Notch1-ICD, CSL-responsive luciferase in 293A cells). It counts as cell-based. The conditions noted are these: 293A cells, 24 h, luciferase normalized to cell viability; read-out: Notch1 Reporter Assay IC50. Here is the method: 293A cells expressing 1) pCMV-Tet-On 3G, 2) pLV[Tet]-Puro-TRE3G>Notch1-ICD, 3) pLV[Tet]-Puro-TRE3G>Notch2-ICD, 4) pLV[Tet]-Puro-TRE3G>Notch3-ICD, and 5) pCSL-RElement-Luc were used. When Doxycycline is added, the Tet-ON gene activates expression of hNotch1ICD, which together with endogenous NTC components binds to CSL responsive elements (pCSL-RElement-Luc) and expresses luciferase. 1 ×× 10^4 cells are plated in 100 µL (96-well format). 24 h later, compounds (10 mM stock in DMSO) are diluted in DMSO to 200X, then added (5 ul into 1 mL) to cell culture media containing 50 ng/mL Dox. This is then added 1:1 to cells. Final DMSO = 0.25%, Dox = 25 ng/mL. After 24 h, media is discarded, and cells are lysed in passive lysis buffer (Promega). Cells are rocked at room temperature for 15 min and then lysate is divided for luciferase assay (Luciferase Assay System, Promega) and cell viability (CellTiter Glo 2.0, Promega). Raw luciferase is normalized to cell viability, and then scaled to DMSO wells. Results are analyzed and IC50′s are determined in GraphPad by nonlinear regression curve fitting (4 parameter) of dose response curves.
As for `Cc1cnccc1NC(=O)c1c(O)c2ccccc2n(CC(C)C)c1=O` [compound 551, 4-hydroxy-1-isobutyl-N-(3-methylpyridin-4-yl)-2-oxo-1,2-dihydroquinoline-3-carboxamide], the IC50 turned out to be 6.7 µM.
On to `Cc1cccnc1NC(=O)c1c(O)c2ccc(N3CCN(C)CC3)cc2n(CC(C)C)c1=O` [580(02)], for which the concentration for half-maximal inhibition (IC50) was 14 µM.
On to `O=C(Nc1ncccc1O)c1c(O)c2c([nH]c1=O)CCCC2` [SSTN-402], for which the IC50 turned out to be 12.1 µM.
With `Cc1cc(NC(=O)c2c(O)c3ccccc3n(CC(C)C)c2=O)n[nH]1` [compound 549, 4-hydroxy-1-isobutyl-N-(5-methyl-1H-pyrazol-3-yl)-2-oxo-1,2-dihydroquinoline-3-carboxamide], the IC50 was found to be 10.1 µM.
For the compound `COc1ccc2c(c1)c(O)c(C(=O)Nc1ncccc1C)c(=O)n2CC(C)C` [compound 514, 4-hydroxy-1-isobutyl-6-methoxy-N-(3-methylpyridin-2-yl)-2-oxo-1,2-dihydroquinoline-3-carboxamide], the IC50 is 13.6 µM.
Consider `CC(C)Cn1c(=O)c(C(=O)Nc2cc(F)cc(N3CCN(C)CC3)c2)c(O)c2ccccc21` [583(02)], for which the IC50 is 6.3 µM.
The same measure, in the same setting: the result for `CC(C)Cn1c(=O)c(C(=O)Nc2ccc(N3CCN(C)CC3)cc2)c(O)c2ccccc21` [569(01)] reads 8.4 µM.
Regarding `CC(C)Cn1c(=O)c(C(=O)Nc2ccc(F)c(N3CCN(C)CC3)c2)c(O)c2ccccc21` [584(01)], the IC50 turned out to be 4.5 µM.
The same measure, in the same setting: next, `CC(C)Cn1c(=O)c(C(=O)Nc2ccccc2F)c(O)c2ccccc21` [compound 537, N-(2-fluorophenyl)-4-hydroxy-1-isobutyl-2-oxo-1,2-dihydroquinoline-3-carboxamide]: 5.1 µM.
The same measure, in the same setting: the result for `CC(C)Cn1c(=O)c(C(=O)Nc2ccc(F)cc2)c(O)c2ccccc21` [compound 539, N-(4-fluorophenyl)-4-hydroxy-1-isobutyl-2-oxo-1,2-dihydroquinoline-3-carboxamide] reads 6.6 µM; that for `CC(C)Cn1c(=O)c(C(=O)Nc2ncccc2O)c(O)c2ccccc21` [compound 519, 4-hydroxy-N-(3-hydroxypyridin-2-yl)-1-isobutyl-2-oxo-1,2-dihydroquinoline-3-carboxamide], 17.8 µM.
On the same count and under the same terms, the result for `CC(C)Cn1c(=O)c(C(=O)Nc2cccc(F)c2N2CCN(C)CC2)c(O)c2ccccc21` [581(02)] reads 7.7 µM.
Regarding `CC(C)Cn1c(=O)c(C(=O)Nc2ncco2)c(O)c2ccccc21` [compound 528, 4-hydroxy-1-isobutyl-N-(oxazol-2-yl)-2-oxo-1,2-dihydroquinoline-3-carboxamide], the IC50 worked out at 14.3 µM.
Still for that read-out and setting: the result for `CC(C)Cn1c(=O)c(C(=O)Nc2cccc(F)c2)c(O)c2ccc(Br)cc21` [SSTN-567, 7-bromo-N-(3-fluorophenyl)-4-hydroxy-1-isobutyl-2-oxo-1,2-dihydroquinoline-3-carboxamide] reads 33.2 µM.
For `CC(C)Cn1c(=O)c(C(=O)Nc2cccc(F)c2)c(O)c2c(N3CCN(C)CC3)cccc21` [588(02)], the IC50 was 9.8 µM.
As to `Cc1ccncc1NC(=O)c1c(O)c2ccccc2n(CC(C)C)c1=O` [compound 550, 4-hydroxy-1-isobutyl-N-(4-methylpyridin-3-yl)-2-oxo-1,2-dihydroquinoline-3-carboxamide], the IC50 came to 20.8 µM.

Still in this experiment, the particulars now being: Notch1 Reporter Assay IC50, µM, 293A cells, 24 h, luciferase normalized to cell viability.
For `Cc1cc(NC(=O)c2c(O)c3ccccc3n(CC(C)C)c2=O)on1` [compound 517, 4-hydroxy-1-isobutyl-N-(3-methylisoxazol-5-yl)-2-oxo-1,2-dihydroquinoline-3-carboxamide], the IC50 was determined as 22.6 µM.

Staying with this experiment, now noted: value printed in the synthesis heading of the compound; read-out: Notch1 Reporter Assay IC50.
Regarding `CC(C)Cn1c(=O)c(C(=O)Nc2ccc(F)c(N3CCN(C)CC3)c2)c(O)c2ccccc21` [SSTN-584_Formate salt, N-(4-fluoro-3-(4-methylpiperazin-1-yl)phenyl)-4-hydroxy-1-isobutyl-2-oxo-1,2-dihydroquinoline-3-carboxamide formate salt], the half-maximal inhibitory concentration (IC50) worked out at 4.54 µM.
On to `CC(C)Cn1c(=O)c(C(=O)Nc2cc(F)c(N3CCN(C)CC3)c(F)c2)c(O)c2ccccc21` [SSTN-582_HCl salt, N-(3,5-difluoro-4-(4-methylpiperazin-1-yl)phenyl)-4-hydroxy-1-isobutyl-2-oxo-1,2-dihydroquinoline-3-carboxamide hydrochloride salt], for which the IC50 was 1.9 µM.
`CC(C)Cn1c(=O)c(C(=O)Nc2ccccc2N2CCN(C)CC2)c(O)c2ccccc21` [SSTN-568_HCl salt, 4-hydroxy-1-isobutyl-N-(2-(4-methylpiperazin-1-yl)phenyl)-2-oxo-1,2-dihydroquinoline-3-carboxamide hydrochloride salt]: the concentration for half-maximal inhibition (IC50) was 6.83 µM.
Take `CC(C)Cn1c(=O)c(C(=O)Nc2ccccc2N2CCN(C)CC2)c(O)c2ccccc21` [SSTN-568, 4-hydroxy-1-isobutyl-N-(2-(4-methylpiperazin-1-yl)phenyl)-2-oxo-1,2-dihydroquinoline-3-carboxamide]: the IC50 was determined as 21.5 µM.
`CC(C)Cn1c(=O)c(C(=O)Nc2cc(F)cc(N3CCN(C)CC3)c2)c(O)c2ccccc21` [SSTN-583, N-(3-fluoro-5-(4-methylpiperazin-1-yl)phenyl)-4-hydroxy-1-isobutyl-2-oxo-1,2-dihydroquinoline-3-carboxamide]: the IC50 was 8.13 µM.
Still for that read-out and setting: next, `Cc1cccnc1NC(=O)c1c(O)c2ccc(N3CCN(C)CC3)cc2n(CC(C)C)c1=O` [SSTN-580_HCl salt, 4-hydroxy-1-isobutyl-7-(4-methylpiperazin-1-yl)-N-(3-methylpyridin-2-yl)-2-oxo-1,2-dihydroquinoline-3-carboxamide hydrochloride salt]: 14 µM; `CC(C)Cn1c(=O)c(C(=O)Nc2cccc(F)c2N2CCN(C)CC2)c(O)c2ccccc21` [SSTN-581_Formate salt, N-(3-fluoro-2-(4-methylpiperazin-1-yl)phenyl)-4-hydroxy-1-isobutyl-2-oxo-1,2-dihydroquinoline-3-carboxamide formate salt]: 7.76 µM; `CC(C)Cn1c(=O)c(C(=O)Nc2ccc(F)c(N3CCN(C)CC3)c2)c(O)c2ccccc21` [SSTN-584_HCl salt, N-(4-fluoro-3-(4-methylpiperazin-1-yl)phenyl)-4-hydroxy-1-isobutyl-2-oxo-1,2-dihydroquinoline-3-carboxamide hydrochloride salt]: 6.04 µM.
As for `CC(C)Cn1c(=O)c(C(=O)Nc2ccc(F)cc2N2CCN(C)CC2)c(O)c2ccccc21` [SSTN-570_HCl salt, N-(4-fluoro-2-(4-methylpiperazin-1-yl)phenyl)-4-hydroxy-1-isobutyl-2-oxo-1,2-dihydroquinoline-3-carboxamide hydrochloride salt], the IC50 is 5.6 µM.
In the case of `CC(C)Cn1c(=O)c(C(=O)Nc2ccc(N3CCN(C)CC3)cc2)c(O)c2ccccc21` [SSTN-569, 4-hydroxy-1-isobutyl-N-(4-(4-methylpiperazin-1-yl)phenyl)-2-oxo-1,2-dihydroquinoline-3-carboxamide], the IC50 is 8.42 µM.
On the same count and under the same terms, next, `Cc1cccnc1NC(=O)c1c(O)c2cc(N3CCN(C)CC3)ccc2n(CC(C)C)c1=O` [SSTN-579, 4-hydroxy-1-isobutyl-6-(4-methylpiperazin-1-yl)-N-(3-methylpyridin-2-yl)-2-oxo-1,2-dihydroquinoline-3-carboxamide]: 18.4 µM.
